For one test, the target named is purified, human IDO (Homo sapiens, UniProt P14902). Briefly: In vitro IDO activity assay (kynurenine adduct detected at 480 nm) used for bioassay guided fractionation. The format is biochemical. The settings on record: extracts and compounds identified by bioassay guided fractionation. Here is the method: Various in vitro assays (see for example Takikawa, et al. J. Biol. Chem. 263, 2041-2048 (1988)) may be used to screen (e.g. high-throughput screening) or test reaction products or extracts obtained natural sources for IDO inhibition activity or to determine the kinetics of IDO inhibition. For example, IDO activity may be assayed by means of a reaction mixture (100 microlitre total volume) containing potassium phosphate buffer (50 mM, pH 6.5), ascorbic acid (20 mM), catalase (200 microgram/mL), methylene blue ([…]), L-tryptophan ([…]), and purified, human IDO. The reaction shown below may be allowed to proceed for 40 min (37° C.) and stopped by the addition of 20 microlitre of 30% (w/v) trichloroacetic acid. The N-formyl kynurenine formed from tryptophan in the reaction mixture during this time is then converted to kynurenine by incubating the reaction mixture at 65° C. for 15 minutes. After cooling the reaction mixture to room temperature, an equal volume of 2% (w/v) p-dimethylamino benzaldehyde in acetic acid may be added to convert the kynurenine present in the reaction mixture to a yellow adduct that can be detected at 480 nm. A standard curve for this latter reaction may be constructed with the use of standard solutions prepared from authentic L-kynurenine. Protein concentration may be determined by the Coomassie blue dye-binding method of Bradford with bovine serum albumin as a standard. (Takikawa et al, J. Biol. Chem. 263, 2041-2048).
Crude extracts from the marine hydroid Garveia annula collected in British Columbia and the sponge Xestospongia sp. collected in Papua New Guinea show activity in the aforementioned assay. […] Annulins A and B, garveatins A and C, and 2-hydroxygarvin A have been previously reported (Fahy et al J. Org. Chem., (1985), 50, 1149-50; J. Org. Chem., (1986), 51, 57-61; J. Org. Chem., (1986), 51, 5145-48; Can. J. Chem., (1987), 65, 376-83), but were not known to be IDO inhibitors. Annulin C, Garvalone C and garveatins E and F are novel. […] Xestoquinone, adociaquinone A, and adociaquinone B had been previously isolated from sponge extracts and their structures have been reported in the literature (Schmitz and Bloor J. Org. Chem. (1988), 53, 3922-3925), but were not known as IDO inhibitors.

The target in a further test is recombinant human IDO (Homo sapiens, UniProt P14902). As to the kind of experiment: IDO inhibition kinetics (N-formylkynurenine formation, absorbance at 321 nm). It counts as biochemical. Conditions: for manner of IDO inhibition: assay repeated using differing concentrations. Here is the method: The following reaction (Sono, M., Cady, S. G. Biochemistry 28, 5392-5399 (1989)) was used to measure the kinetics of inhibition of IDO using compounds of this invention as well as other compounds for comparison, as listed in Table 4.
A solution of 0.1M potassium phosphate buffer (pH 6.5; optimal at 37° C.), 25 μM methylene blue, 200 μg/ml of catalase, 10 mM ascorbic acid, 50 nM of recombinant human IDO and 100 μM L-Tryptophan was prepared. The rate of product formation (Δε321=3.75 mM^−1 cm^−1 for N-formylkynurenine) was determined from the slope of the initial linear absorbance increase at 321 nm as a function of time.

The next test concerns the target IDO (Oryctolagus cuniculus, UniProt G1SJI2). Conditions: tryptophan (substrate) analogues; Sono and Cady 1989, Cady and Sono 1991; cited from earlier work.
Setting [1] is: 50 nM recombinant human IDO, 100 μM L-Tryptophan, pH 6.5, read-out: Ki.

Read-outs that look alike come from different tables or passages of the source.

recombinant human IDO, sequence (P14902 whole entry): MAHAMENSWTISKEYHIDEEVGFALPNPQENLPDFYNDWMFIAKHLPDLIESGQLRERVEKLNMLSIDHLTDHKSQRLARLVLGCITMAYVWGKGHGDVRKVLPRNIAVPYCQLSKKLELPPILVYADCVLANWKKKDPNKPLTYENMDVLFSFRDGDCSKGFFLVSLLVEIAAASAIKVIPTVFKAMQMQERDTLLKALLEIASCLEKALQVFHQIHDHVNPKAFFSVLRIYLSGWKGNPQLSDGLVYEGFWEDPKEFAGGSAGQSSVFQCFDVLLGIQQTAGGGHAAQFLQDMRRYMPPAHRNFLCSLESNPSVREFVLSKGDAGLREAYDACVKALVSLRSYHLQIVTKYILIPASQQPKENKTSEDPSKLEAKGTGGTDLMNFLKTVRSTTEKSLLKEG
purified, human IDO, sequence (P14902 whole entry): as above
IDO, sequence (G1SJI2 1-402): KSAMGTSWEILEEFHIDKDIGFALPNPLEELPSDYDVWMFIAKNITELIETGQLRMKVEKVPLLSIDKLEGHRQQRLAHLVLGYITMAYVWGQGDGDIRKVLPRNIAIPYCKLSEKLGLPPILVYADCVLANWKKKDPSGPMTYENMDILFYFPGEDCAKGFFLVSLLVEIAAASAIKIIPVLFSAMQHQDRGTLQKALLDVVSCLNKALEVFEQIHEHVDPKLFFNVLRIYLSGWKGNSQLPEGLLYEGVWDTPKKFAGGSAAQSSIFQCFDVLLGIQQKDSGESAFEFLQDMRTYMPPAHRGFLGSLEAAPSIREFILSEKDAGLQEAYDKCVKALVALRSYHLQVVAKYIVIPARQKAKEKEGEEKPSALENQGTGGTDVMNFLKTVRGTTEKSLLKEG

The Ki is a dissociation constant, usually derived from enzyme kinetics or from competition with a known ligand. For `CCc1c(C)cc2c(c1O)C(=O)C1=C(C2=O)C(C)(C)OC1(O)C(=O)OC` (centres unmarked) [Annulin A], at purified, human IDO, the “IDO inhibition activity (qualitative)” value is listed as “active IDO inhibitors”. Further, on recombinant human IDO (setting [1]), the Ki was 0.694 µM.

With `CCc1c(C)cc2c(c1O)C(=O)C1=C(C2=O)C(C)(C)C(=O)C(C)(C(=O)OC)O1` (centres unmarked) [Annulin B], the “IDO inhibition activity (qualitative)” value at purified, human IDO is “active IDO inhibitors”. Also, at recombinant human IDO (setting [1]), the Ki came to 0.123 µM.

On to `CC1=C(C/C=C(\C)CCC[C@H](C)CCC[C@H](C)CCCC(C)C)C(=O)c2ccccc2C1=O` [Vitamin K1, reference compound], for which the Ki at recombinant human IDO (setting [1]) is greater than 40 µM.

Take `O=C1c2ccccc2C(=O)c2c1ccc(O)c2O` [Alizarin, reference compound]: the Ki at recombinant human IDO (setting [1]) stood at 42 µM.

With `CC(=O)CC(c1ccccc1)c1c(O)c2ccccc2oc1=O` (centres unmarked) [Warfarin, reference compound], the Ki at recombinant human IDO (setting [1]) is greater than 32 µM.

On to `COc1c(C(C)=O)c(C)cc2cc3c(c(O)c12)C(=O)C(C)(C)C(=O)C3(C)C` [Garveatin C], for which the “IDO inhibition activity (qualitative)” value on purified, human IDO was “active IDO inhibitors”. Moreover, the Ki on recombinant human IDO (setting [1]) amounted to 1.18 µM.

For the compound `CCc1c(C)cc2c(c1O)C(=O)C1=C(C2=O)C(C)(C)OC1(OC)C(=O)OC` (centres unmarked) [Annulin C], the “IDO inhibition activity (qualitative)” value on purified, human IDO is “active IDO inhibitors”. Moreover, the Ki on recombinant human IDO (setting [1]) is 0.144 µM. For the same compound, the “manner of IDO inhibition” value at recombinant human IDO is listed as “non-competitive”.

Consider `CC(=O)c1c(C)cc2cc3c(c(O)c2c1O)C(=O)C(C)=C(O)C3(C)C` [Garveatin A], for which the “IDO inhibition activity (qualitative)” value on purified, human IDO was “active IDO inhibitors”. In addition, the Ki on recombinant human IDO (setting [1]) was 3.2 µM.

Take `CC1=CC(=O)c2ccccc2C1=O` [Menadione (Vitamin K3), Menadione, reference compound]: the “IDO inhibition activity (qualitative)” value at purified, human IDO is on record as “shown to be an IDO inhibitor”. Moreover, at recombinant human IDO (setting [1]), the Ki was 0.58 µM. In addition, at recombinant human IDO, the “manner of IDO inhibition” value was “non-competitive”.

Consider `CC12CCCc3coc(c31)C(=O)c1cc3c(cc12)C(=O)C=CC3=O` (centres unmarked) [Xestoquinone], for which the “IDO inhibition activity (qualitative)” value on purified, human IDO is “active IDO inhibitors”. Further, on recombinant human IDO (setting [1]), the Ki was determined as 0.181 µM.

For `O=C1C=CC(=O)c2c(O)cccc21` [Juglone, reference compound], on recombinant human IDO (setting [1]), the Ki is 0.048 µM.

As to Doxorubicin [reference compound], the Ki at recombinant human IDO (setting [1]) turned out to be 46000 µM.

In the case of `O=c1ccc2ccccc2o1` [Coumarin, reference compound], the Ki at recombinant human IDO (setting [1]) came out at 1110 µM.

On to `CC12CCCc3coc(c31)C(=O)c1cc3c(cc12)C(=O)C1=C(NCCS1(=O)=O)C3=O` (centres unmarked) [Adociaquinone B], for which, at purified, human IDO, the “IDO inhibition activity (qualitative)” value was “active IDO inhibitors”. Moreover, the Ki at recombinant human IDO (setting [1]) was determined as 0.025 µM.

Consider `Cn1cc(C[C@H](N)C(=O)O)c2ccccc21` [1-methyl-L-tryptophan (1MT), 1-methyl-L-tryptophan], for which, on IDO, the “manner of IDO inhibition” value is “competitive inhibitors”.

For the compound `CCC1=C(C)C(=O)c2cc3c(c(O)c2C1=O)C(=O)C(C)=C(O)C3(C)C` [Garveatin E], at purified, human IDO, the “IDO inhibition activity (qualitative)” value was “active IDO inhibitors”. On recombinant human IDO (setting [1]), the Ki came to 3.1 µM.

In the case of `COC1=CC(=O)c2ccccc2C1=O`, the Ki at recombinant human IDO (setting [1]) was 0.53 µM.

As to `O=C1C=Cc2ccccc2C1=O` [1,2 naphthoquinone, reference compound], the Ki at recombinant human IDO (setting [1]) came to 3.4 µM.

For the compound `CCc1c(C)cc2cc3c(c(O)c2c1O)C(=O)C(C)(O)C(=O)C3(C)C` (centres unmarked) [Garveatin F], the “IDO inhibition activity (qualitative)” value on purified, human IDO is on record as “active IDO inhibitors”. Besides, on recombinant human IDO (setting [1]), the Ki came to 1.42 µM.

`COC(=O)c1c(C)cc2cc3c(c(O)c2c1OC)C(=O)C(C)(CC(C)=O)C(=O)C3(C)C` (centres unmarked) [Garvalone C]: the Ki on recombinant human IDO (setting [1]) was found to be 1.25 µM.

Consider `NC(Cc1coc2ccccc12)C(=O)O` (racemic) [beta-(3-benzofuranyl)-DL-alanine], for which, at IDO, the “manner of IDO inhibition” value is “competitive inhibitors”.

As for `O=C1C=C(O)C(=O)c2ccccc21`, on recombinant human IDO (setting [1]), the Ki amounted to 100 µM.

On to `Oc1ccc(O)cc1` [Dihydroquinone, reference compound], for which the Ki on recombinant human IDO (setting [1]) was greater than 5000 µM.

For `CCCc1c(C(=O)OC)c(OC)cc2cc3c(c(O)c12)C(=O)C(C)(O)C(=O)C3(C)C` (centres unmarked) [2-Hydroxygarvin A], on purified, human IDO, the “IDO inhibition activity (qualitative)” value was “active IDO inhibitors”. In addition, the Ki at recombinant human IDO (setting [1]) amounted to 2.3 µM.

Take `CC1Cc2c(c(O)cc3cc4c(c(O)c23)OC(C)(C)C4(C)C)C(=O)O1` (centres unmarked) [Garvin C]: at recombinant human IDO (setting [1]), the Ki is roughly 2100 µM.

`CC12CCCc3coc(c31)C(=O)c1cc3c(cc12)C(=O)C1=C(C3=O)S(=O)(=O)CCN1` (centres unmarked) [Adociaquinone A]: on purified, human IDO, the “IDO inhibition activity (qualitative)” value was “active IDO inhibitors”. In addition, the Ki on recombinant human IDO (setting [1]) turned out to be 0.086 µM.

On to `O=C1C(Cl)=C(Cl)C(=O)c2ccccc21` [Dichlone, reference compound], for which the Ki on recombinant human IDO was 0.045 µM.
